Test results taken from US20190046600A1, “COMPOSITIONS AND USES THEREOF” (priority 2016, published 2019).
Entries after “also recorded” stand apart in the source; their conditions may differ.

Legend:
[1] = tested on: NCI-H460 human non-small cell cancer; assay: In vitro cytotoxicity of Olaparib on NCI-H460, alamarBlue, 96 h; type: cell-based; conditions: 30 nM Olaparib
Method: 2) Cells were harvested and seeded into 96-well plates at 500 cells/well. […] Final DMSO concentration was 0.3%. 4) Cells were grown with compound for 96 hours at 37° C. 5% CO2 in a humidified atmosphere. 5) AlamarBlue® cell viability reagent (Life Technologies, Inc.) 10% (v/v) was then added and incubated for a further 4 hours, and fluorescent product detected using the BMG FLUOstar plate reader. 6) Data were analysed using a 4-parameter logistic equation in GraphPad Prism.

NCI-H460 cells = assay: HILR-001 with or without 30 nM Olaparib on NCI-H460, alamarBlue and CellTiter-Glo time course; type: cell-based, human
Method: At each time point cell viability was measured by two assay readouts, alamarBlue® and CellTiter-Glo. Conversion of alamarBlue® to a fluorescent product serves as a readout of the metabolic activity of cells, whereas CellTiter-Glo is based on quantification of the ATP present.
2) Cells were harvested and seeded into 96-well plates at 500 cells/well. 3) HILR-001 was made up from a 10 mM stock solution and added directly to cells in doubling dilutions starting at 200 μM. […] The total final DMSO concentration was 0.25%. 4) Cells were grown with compound for 24, 48, 72 or 96 hours at 37° C. 5% CO2 in a humidified atmosphere. 5) AlamarBlue® 10% (v/v) was then added and incubated for a further 4 hours, and fluorescent product detected using the BMG FLUOstar plate reader. 6) On duplicate plates the media was removed from the cells, CellTiter-Glo was diluted in PBS (1:10) and 100 μl added to the cells. 7) Plates were mixed on an orbital shaker for 2 minutes and incubated for a further 10 minutes at room temperature. Luminescent signal was then measured using the BMG FLUOstar plate reader.

[2] = 30 nM Olaparib co-incubated with 50 μM HILR-001

## O=C(c1cc(Cc2n[nH]c(=O)c3ccccc23)ccc1F)N1CCN(C(=O)C2CC2)CC1 [Olaparib, 4-[3-(4-cyclopropanecarbonylpiperazine-1-carbonyl)-4-fluorobenzyl]-2H-phthalazin-1-one]
[1]
  toxicity to NCI-H460 cells: non-toxic
NCI-H460 cells; [2]
  ATP levels (CellTiter-Glo): partially reverses the HILR-001-induced fall in ATP; also recorded: partially restored ATP levels
  HILR-001-mediated cell death (alamarBlue): reversed 50 μM HILR-001-mediated cell death
NCI-H460 cells; Olaparib with higher doses of HILR-001 (100 μM and 200 μM)
  ATP levels or cancer cell death: did not affect ATP levels or cancer cell death
